{
  "source": "patent US20210382058A1",
  "about": "“PATIENT SELECTION FOR TREATMENT OF MYC POSITIVE CANCERS WITH INDENOISOQUINOLINES” (Purdue Research Foundation, priority 2020, published 2021)",
  "key": {"[1]": {"system": "MYC protein expression in MCF-7 breast cancer cells", "assay": "Western blotting of MYC protein level in MCF-7 cells", "format": "cell-based, human", "settings": "Homo sapiens, MCF7; western blotting, MCF-7 cells, 0.5, 1, 2, and 4 μM, 24 hours; read-out: MYC Inhibition", "protocol": "MCF-7 cells were incubated with each compound at four concentrations (0.5, 1, 2, and 4 μM) for 24 hours, and the MYC protein levels were measured (FIG. 3A and FIGS. 12 A to 12 F).\nCells were incubated at 37° C. with 5% CO2.\nThe gels were cut into strips that contained the proteins of interest and transferred to nitrocellulose membrane (I323002, Invitrogen) using an iBlot 2 Dry Transfer Device (Invitrogen). Immunoblotting was carried out according to standard procedures using the ECL detection method. The membrane was hybridized with the following antibodies: monoclonal anti-MYC (1:1000 dilution; rabbit, Cell Signaling Technology), monoclonal anti-GAPDH (1:2000 dilution; rabbit, Cell Signaling Technology)."}, "[2]": {"system": "NCI-60 cancer cell lines", "assay": "NCI-60 cancer cell line drug screen (GI50, MGM)", "format": "cell-based, human", "settings": "Homo sapiens", "protocol": "Cancer cells were incubated with the test compounds at five concentrations ranging from 100 μM to 10 nM for 48 h. […] The approximate average of GI50 values across the entire panel of NCI-60 cancer cell lines for each compound was recorded as the MGM value."}},
  "note": "Where two headings read alike, the source gives them in different places.",
  "data": [
    {"molecule": "COc1cc2c3c(n(CCCn4ccnc4)c(=O)c2cc1OC)-c1cc2c(cc1C3=O)OCO2", "note": "[Compound 42]", "values": [
      {"measurement": "minimal effective concentration", "setting": "[1]", "result": "0.5 to 1", "unit": "µM"},
      {"measurement": "GI50", "setting": "[2]; 786-0, Renal Cancer, 786-0, read-out: Antiproliferative Activities [GI50 (μM)]", "result": "< 0.01", "unit": "µM"},
      {"measurement": "GI50", "setting": "[2]; A498, Renal Cancer, A498, read-out: Antiproliferative Activities [GI50 (μM)]", "result": 7.17, "unit": "µM"},
      {"measurement": "GI50", "setting": "[2]; A549, Non-Small Cell Lung Cancer, A549/ATCC, read-out: Antiproliferative Activities [GI50 (μM)]", "result": 10.5, "unit": "µM"},
      {"measurement": "GI50", "setting": "[2]; ACHN, Renal Cancer, ACHN, read-out: Antiproliferative Activities [GI50 (μM)]", "result": "< 0.01", "unit": "µM"},
      {"measurement": "GI50", "setting": "[2]; CAKI-1, Renal Cancer, CAKI-1, read-out: Antiproliferative Activities [GI50 (μM)]", "result": 0.32, "unit": "µM"},
      {"measurement": "GI50", "setting": "[2]; CCRF-CEM, Leukemia, CCRF-CEM, read-out: Antiproliferative Activities [GI50 (μM)]", "result": "< 0.01", "unit": "µM"},
      {"measurement": "GI50", "setting": "[2]; COLO 205, Colon Cancer, COLO 205, read-out: Antiproliferative Activities [GI50 (μM)]", "result": "> 100", "unit": "µM"},
      {"measurement": "GI50", "setting": "[2]; DU-145, Prostate Cancer, DU-145, read-out: Antiproliferative Activities [GI50 (μM)]", "result": "< 0.01", "unit": "µM"},
      {"measurement": "GI50", "setting": "[2]; EKVX, Non-Small Cell Lung Cancer, EKVX, read-out: Antiproliferative Activities [GI50 (μM)]", "result": 70.7, "unit": "µM"},
      {"measurement": "GI50", "setting": "[2]; HCC 2998, Colon Cancer, HCC-2998, read-out: Antiproliferative Activities [GI50 (μM)]", "result": 29.3, "unit": "µM"},
      {"measurement": "GI50", "setting": "[2]; HCT-15, Colon Cancer, HCT-15, read-out: Antiproliferative Activities [GI50 (μM)]", "result": "> 100", "unit": "µM"},
      {"measurement": "GI50", "setting": "[2]; HCT-116, Colon Cancer, HCT-116, read-out: Antiproliferative Activities [GI50 (μM)]", "result": 0.17, "unit": "µM"},
      {"measurement": "GI50", "setting": "[2]; HL-60, read-out: Antiproliferative Activities [GI50 (μM)]", "result": 0.02, "unit": "µM"},
      {"measurement": "GI50", "setting": "[2]; HOP-62, Non-Small Cell Lung Cancer, HOP-62, read-out: Antiproliferative Activities [GI50 (μM)]", "result": "< 0.01", "unit": "µM"},
      {"measurement": "GI50", "setting": "[2]; HOP-92, Non-Small Cell Lung Cancer, HOP-92, read-out: Antiproliferative Activities [GI50 (μM)]", "result": 0.19, "unit": "µM"},
      {"measurement": "GI50", "setting": "[2]; HT-29, Colon Cancer, HT29, read-out: Antiproliferative Activities [GI50 (μM)]", "result": "> 100", "unit": "µM"},
      {"measurement": "GI50", "setting": "[2]; Hs-578T, Breast Cancer, HS 578T, read-out: Antiproliferative Activities [GI50 (μM)]", "result": 54.2, "unit": "µM"},
      {"measurement": "GI50", "setting": "[2]; IGROV-1, Ovarian Cancer, IGROV1, read-out: Antiproliferative Activities [GI50 (μM)]", "result": 6.72, "unit": "µM"},
      {"measurement": "GI50", "setting": "[2]; K562, Leukemia, K-562, read-out: Antiproliferative Activities [GI50 (μM)]", "result": 1.49, "unit": "µM"},
      {"measurement": "GI50", "setting": "[2]; KM12, Colon Cancer, KM12, read-out: Antiproliferative Activities [GI50 (μM)]", "result": "> 100", "unit": "µM"},
      {"measurement": "GI50", "setting": "[2]; LOX IMVI, Melanoma, LOX IMVI, read-out: Antiproliferative Activities [GI50 (μM)]", "result": 0.06, "unit": "µM"},
      {"measurement": "GI50", "setting": "[2]; Leukemia, SR, read-out: Antiproliferative Activities [GI50 (μM)]", "result": "< 0.01", "unit": "µM"},
      {"measurement": "GI50", "setting": "[2]; MCF7, Breast Cancer, MCF7, read-out: Antiproliferative Activities [GI50 (μM)]", "result": "< 0.01", "unit": "µM"},
      {"measurement": "GI50", "setting": "[2]; MDA-MB-231, Breast Cancer, MDA-MB-231/ATCC, read-out: Antiproliferative Activities [GI50 (μM)]", "result": 77.8, "unit": "µM"},
      {"measurement": "GI50", "setting": "[2]; MDA-MB-435, Melanoma, MDA-MB-435, read-out: Antiproliferative Activities [GI50 (μM)]", "result": "> 100", "unit": "µM"},
      {"measurement": "GI50", "setting": "[2]; MOLT-4, Leukemia, MOLT-4, read-out: Antiproliferative Activities [GI50 (μM)]", "result": "< 0.01", "unit": "µM"},
      {"measurement": "GI50", "setting": "[2]; Malme-3M, Melanoma, MALME-3M, read-out: Antiproliferative Activities [GI50 (μM)]", "result": 1.6, "unit": "µM"},
      {"measurement": "GI50", "setting": "[2]; Melanoma, M14, read-out: Antiproliferative Activities [GI50 (μM)]", "result": "< 0.01", "unit": "µM"},
      {"measurement": "GI50", "setting": "[2]; NCI-H23, Non-Small Cell Lung Cancer, NCI-H23, read-out: Antiproliferative Activities [GI50 (μM)]", "result": 0.09, "unit": "µM"},
      {"measurement": "GI50", "setting": "[2]; NCI-H226, Non-Small Cell Lung Cancer, NCI-H226, read-out: Antiproliferative Activities [GI50 (μM)]", "result": 0.37, "unit": "µM"},
      {"measurement": "GI50", "setting": "[2]; NCI-H322M, Non-Small Cell Lung Cancer, NCI-H322M, read-out: Antiproliferative Activities [GI50 (μM)]", "result": "> 100", "unit": "µM"},
      {"measurement": "GI50", "setting": "[2]; NCI-H460, Non-Small Cell Lung Cancer, NCI-H460, read-out: Antiproliferative Activities [GI50 (μM)]", "result": "< 0.01", "unit": "µM"},
      {"measurement": "GI50", "setting": "[2]; NCI-H522, Non-Small Cell Lung Cancer, NCI-H522, read-out: Antiproliferative Activities [GI50 (μM)]", "result": "< 0.01", "unit": "µM"},
      {"measurement": "GI50", "setting": "[2]; OVCAR-3, Ovarian Cancer, OVCAR-3, read-out: Antiproliferative Activities [GI50 (μM)]", "result": 16.4, "unit": "µM"},
      {"measurement": "GI50", "setting": "[2]; OVCAR-4, Ovarian Cancer, OVCAR-4, read-out: Antiproliferative Activities [GI50 (μM)]", "result": "> 100", "unit": "µM"},
      {"measurement": "GI50", "setting": "[2]; OVCAR-5, Ovarian Cancer, OVCAR-5, read-out: Antiproliferative Activities [GI50 (μM)]", "result": "> 100", "unit": "µM"},
      {"measurement": "GI50", "setting": "[2]; OVCAR-8, Ovarian Cancer, OVCAR-8, read-out: Antiproliferative Activities [GI50 (μM)]", "result": 1.03, "unit": "µM"},
      {"measurement": "GI50", "setting": "[2]; Ovarian Cancer, NCl/ADR-RES, read-out: Antiproliferative Activities [GI50 (μM)]", "result": 0.35, "unit": "µM"},
      {"measurement": "GI50", "setting": "[2]; Prostate Cancer, PC-3, read-out: Antiproliferative Activities [GI50 (μM)]", "result": 34.9, "unit": "µM"},
      {"measurement": "GI50", "setting": "[2]; RPMI-8226, Leukemia, RPMI-8226, read-out: Antiproliferative Activities [GI50 (μM)]", "result": "< 0.01", "unit": "µM"},
      {"measurement": "GI50", "setting": "[2]; RXF 393, Renal Cancer, RXF 393, read-out: Antiproliferative Activities [GI50 (μM)]", "result": 8, "unit": "µM"},
      {"measurement": "GI50", "setting": "[2]; Renal Cancer, U0-31, read-out: Antiproliferative Activities [GI50 (μM)]", "result": 0.03, "unit": "µM"},
      {"measurement": "GI50", "setting": "[2]; SF-295, CNS Cancer, SF-295, read-out: Antiproliferative Activities [GI50 (μM)]", "result": "< 0.01", "unit": "µM"},
      {"measurement": "GI50", "setting": "[2]; SF-539, CNS Cancer, SF-539, read-out: Antiproliferative Activities [GI50 (μM)]", "result": "< 0.01", "unit": "µM"},
      {"measurement": "GI50", "setting": "[2]; SK-MEL-2, Melanoma, SK-MEL-2, read-out: Antiproliferative Activities [GI50 (μM)]", "result": "> 100", "unit": "µM"},
      {"measurement": "GI50", "setting": "[2]; SK-MEL-5, Melanoma, SK-MEL-5, read-out: Antiproliferative Activities [GI50 (μM)]", "result": 0.22, "unit": "µM"},
      {"measurement": "GI50", "setting": "[2]; SK-MEL-28, Melanoma, SK-MEL-28, read-out: Antiproliferative Activities [GI50 (μM)]", "result": "> 100", "unit": "µM"},
      {"measurement": "GI50", "setting": "[2]; SK-OV-3, Ovarian Cancer, SK-OV-3, read-out: Antiproliferative Activities [GI50 (μM)]", "result": "< 0.01", "unit": "µM"},
      {"measurement": "GI50", "setting": "[2]; SN12C, Renal Cancer, SN12C, read-out: Antiproliferative Activities [GI50 (μM)]", "result": "< 0.01", "unit": "µM"},
      {"measurement": "GI50", "setting": "[2]; SNB-19, CNS Cancer, SNB-19, read-out: Antiproliferative Activities [GI50 (μM)]", "result": "< 0.01", "unit": "µM"},
      {"measurement": "GI50", "setting": "[2]; SNB-75, CNS Cancer, SNB-75, read-out: Antiproliferative Activities [GI50 (μM)]", "result": 0.23, "unit": "µM"},
      {"measurement": "GI50", "setting": "[2]; SW-620, Colon Cancer, SW-620, read-out: Antiproliferative Activities [GI50 (μM)]", "result": 0.06, "unit": "µM"},
      {"measurement": "GI50", "setting": "[2]; T47D, Breast Cancer, T-47D, read-out: Antiproliferative Activities [GI50 (μM)]", "result": "< 0.01", "unit": "µM"},
      {"measurement": "GI50", "setting": "[2]; TK-10, Renal Cancer, TK-10, read-out: Antiproliferative Activities [GI50 (μM)]", "result": 73.7, "unit": "µM"},
      {"measurement": "GI50", "setting": "[2]; U-251, CNS Cancer, U251, read-out: Antiproliferative Activities [GI50 (μM)]", "result": "< 0.01", "unit": "µM"},
      {"measurement": "GI50", "setting": "[2]; UACC-62, Melanoma, UACC-62, read-out: Antiproliferative Activities [GI50 (μM)]", "result": "< 0.01", "unit": "µM"},
      {"measurement": "GI50", "setting": "[2]; UACC-257, Melanoma, UACC-257, read-out: Antiproliferative Activities [GI50 (μM)]", "result": "> 100", "unit": "µM"}
    ]}
  ]
}
